Results from patent US10138233B2, “Imidazole compounds as modulators of FSHR and uses thereof” (Merck Patent GmbH, priority 2013, dated 2018).
pEC50: −log10 of the molar value.

Biological target: T1, FSHR (Homo sapiens, UniProt P23945)
T1 construct: expressed in transfected cells; host or cells: CHO cells, clone Cho-FSHR-LUC-1-1-43
T1 sequence (P23945 18-695): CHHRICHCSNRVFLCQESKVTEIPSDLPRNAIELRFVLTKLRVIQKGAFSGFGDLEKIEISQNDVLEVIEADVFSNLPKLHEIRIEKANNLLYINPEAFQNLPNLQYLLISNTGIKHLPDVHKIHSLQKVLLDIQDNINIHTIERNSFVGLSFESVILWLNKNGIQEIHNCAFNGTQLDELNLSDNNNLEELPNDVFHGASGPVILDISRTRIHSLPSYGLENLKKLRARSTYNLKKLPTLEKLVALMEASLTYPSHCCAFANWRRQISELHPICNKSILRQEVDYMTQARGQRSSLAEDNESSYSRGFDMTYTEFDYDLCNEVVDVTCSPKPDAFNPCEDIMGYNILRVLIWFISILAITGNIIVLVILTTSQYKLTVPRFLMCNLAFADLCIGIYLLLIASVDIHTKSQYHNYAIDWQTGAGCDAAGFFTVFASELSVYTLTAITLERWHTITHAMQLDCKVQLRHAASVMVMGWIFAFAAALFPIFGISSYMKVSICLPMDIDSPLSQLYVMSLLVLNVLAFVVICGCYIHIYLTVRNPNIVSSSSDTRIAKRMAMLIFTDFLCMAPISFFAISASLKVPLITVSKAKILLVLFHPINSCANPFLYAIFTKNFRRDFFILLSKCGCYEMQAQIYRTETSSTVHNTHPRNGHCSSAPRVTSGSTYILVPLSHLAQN
Test: EC50 of cyclic AMP production in CHO FSHR cells + EC20 FSH (Assay A)
Assay type: cell-based
Conditions: CHO-FSHR-LUC cells, in presence of EC20 FSH, cAMP HTRF, 1 h 37° C.
Description: EC50 of cyclic AMP production in CHO FSHR cells+EC20 FSH (Assay A)
2500 Cho-FSHR-LUC-1-1-43 cells were plated per well in 5 μl of phenol red free DMEM/F12+1% FBS. […] Cells were assayed by adding 100 μl of 2×EC20 FSH/IBMX in DMEM/F12+0.1% BSA) by Multidrop to 2 μl of test compound stamped in 384 well plates (compounds are diluted 1:50). […] The compound plate map was as follows: Column 1: 2 μl of DMSO; Column 2: 2 μl of DMSO; Columns 3-12 and 13-24: 2 μl of test compound, diluted 1:4 in 100% DMSO, or 2 μl of FSH, diluted 1:4 in DMEM/F12+0.1% BSA. The starting concentration for FSH was 50 nM (final concentration was 0.5 nM). […] 10 μl of mixed HTRF (CisBio #62AM4PEC) reagents were added per well and incubated at room temperature for 1 h. The plates were read on Envision using the cAMP HTRF—low volume 384 well protocol. […] Values given in percent (%) indicate the percental effect (response) at a certain concentration of agonist relative to the maximum response of the FSH standard.

pEC50 | SMILES
6.00 to 7.00 | COc1cc2c(cc1OC(C)C)-n1c(-c3cc(F)ccc3F)nc(C(=O)N3CCOCC3(C)C)c1CC2 [Compound 127]
6.00 to 7.00 | COc1cc2c(cc1OC(C)C)-n1c(-c3ccn(C)c3)nc(C(=O)N(C)C(C)(C)C)c1CC2 [Compound 15]
5.30 to 6.00 | COC(=O)c1nc(C(=O)N(C)C(C)(C)C)c2n1-c1cc(OC(C)C)c(OC)cc1CC2 [Compound 74, 3-(tert-Butyl-methyl-carbamoyl)-8-isopropoxy-7-methoxy-4,5-dihydro-imidazo[1,5-a]quinoline-1-carboxylic acid methyl ester]
5.30 to 6.00 | COc1cc2c(cc1OC(C)C)-n1c(-c3cc(Cl)c(F)cc3F)nc(C(=O)N3CCOCC3(C)C)c1CC2 [Compound 113]
5.30 to 6.00 | COc1cc2c(cc1OC(C)C)-n1c(-c3cc(Cl)ccc3OC)nc(C(=O)N3CCOCC3(C)C)c1CC2 [Compound 105]
6.00 to 7.00 | COc1cc2c(cc1OC(C)C)-n1c(-c3cccc(Cl)c3Cl)nc(C(=O)N3CCOCC3(C)C)c1CC2 [Compound 142]
< 5.30 | COc1ccc(-c2nc(C(=O)N3CCOCC3(C)C)c3n2-c2cc(OC(C)C)c(OC)cc2CC3)cc1F [Compound 118]
6.00 to 7.00 | COc1cc2c(cc1OC(C)C)-n1c(-c3cc(Cl)ccc3Cl)nc(C(=O)N(C)C(C)(C)C)c1CC2 [Compound 65]
5.30 to 6.00 | COC/C=C/c1nc(C(=O)N2CCOCC2(C)C)c2n1-c1cc(OC(C)C)c(OC)cc1CC2 [Compound 51]
6.00 to 7.00 | COc1cc2c(cc1OC(C)C)-n1c(C3=CCCCO3)nc(C(=O)N3CCOCC3(C)C)c1CC2 [Compound 50]
5.30 to 6.00 | COc1cc2c(cc1OC(C)C)-n1c(C3=CCC(C)CC3)nc(C(=O)N3CCOCC3(C)C)c1CC2 (centres unmarked) [Compound 86]
> 7.00 | COc1cc2c(cc1-c1cccnc1)-n1c(-c3ccsc3)nc(C(=O)N(C)C(C)(C)C)c1CC2 [Compound 8, 7-Methoxy-8-pyridin-3-yl-1-thiophen-3-yl-4,5-dihydro-imidazo[1,5-a]quinoline-3-carboxylic acid tert-butyl-methyl-amide]
5.30 to 6.00 | COc1cc2c(cc1-c1ccn(C)c1)-n1c(-c3cccs3)nc(C(=O)NC3(C)COC3)c1CC2 [Compound 98, 7-Methoxy-8-(1-methyl-1H-pyrrol-3-yl)-1-thiophen-2-yl-4,5-dihydro-imidazo[1,5-a]quinoline-3-carboxylic acid (3-methyl-oxetan-3-yl)-amide]
5.30 to 6.00 | COc1cc2c(cc1OC(C)C)-n1c(-c3cccs3)nc(C(=O)NC3(C)COC3)c1CO2 [Compound 138, 8-Isopropoxy-7-methoxy-1-thiophen-2-yl-4H-5-oxa-2,9b-diaza-cyclopenta[a]naphthalene-3-carboxylic acid (3-methyl-oxetan-3-yl)-amide]
6.00 to 7.00 | COc1cc2c(cc1OC(C)C)-n1c(-c3sc(C)cc3C)nc(C(=O)N3CCOCC3(C)C)c1CC2 [Compound 99]
6.00 to 7.00 | COc1cc2c(cc1CC(C)C)-n1c(-c3sccc3C)nc(C(=O)N(C)C(C)(C)C)c1CC2 [Compound 146, 8-Isobutyl-7-methoxy-1-(3-methyl-thiophen-2-yl)-4,5-dihydro-imidazo[1,5-a]quinoline-3-carboxylic acid tert-butyl-methyl-amide]
6.00 to 7.00 | COc1cc2c(cc1OC(C)C)-n1c(-c3cc(Cl)ccc3F)nc(C(=O)N3CCOCC3(C)C)c1CC2 [Compound 101]
< 5.30 | COc1cc2c(cc1OC(C)C)-n1c(-c3ccn(C)n3)nc(C(=O)N3CCOCC3(C)C)c1CC2 [Compound 43]
< 5.30 | COc1cc2c(cc1OC(C)C)-n1c(-c3c(C)nn(C)c3C)nc(C(=O)N3CCOCC3(C)C)c1CC2 [Compound 37]
6.00 to 7.00 | COc1cc2c(cc1OC(C)C)-n1c(-c3cc(C(F)(F)F)cc(C(F)(F)F)c3)nc(C(=O)N3CCOCC3(C)C)c1CC2 [Compound 119]
< 5.30 | COc1cc2c(cc1OC(C)C)-n1c(-c3ccncc3)nc(C(=O)N(C)C(C)(C)C)c1CC2 [Compound 13]

pEC50 | SMILES
< 5.30 | COc1cc2c(cc1OC(C)C)-n1c(-c3cc[nH]n3)nc(C(=O)N3CCOCC3(C)C)c1CC2 [Compound 69]
6.00 to 7.00 | COc1cc2c(cc1-c1n[nH]c(=O)o1)-n1c(-c3cccs3)nc(C(=O)N(C)C(C)(C)C)c1CC2 [Compound 132, 7-Methoxy-8-(5-oxo-4,5-dihydro-[1,3,4]oxadiazol-2-yl)-1-thiophen-2-yl-4,5-dihydro-imidazo[1,5-a]quinoline-3-carboxylic acid tert-butyl-methyl-amide]
< 5.30 | COc1cc2c(cc1OC(C)C)-n1c(-c3cnn(C)c3C)nc(C(=O)N3CCOCC3(C)C)c1CC2 [Compound 35]
5.30 to 6.00 | COc1cc2c(cc1OC(C)C)-n1c(-c3cccnc3)nc(C(=O)N3CCOCC3(C)C)c1CC2 [Compound 39]
6.00 to 7.00 | COc1cc2c(cc1OC)-n1c(-c3ccsc3)nc(C(=O)N(C)C(C)(C)C)c1CC2 [Compound 2, 7,8-Dimethoxy-1-thiophen-3-yl-4,5-dihydro-imidazo[1,5-a]quinoline-3-carboxylic acid tert-butyl-methyl-amide]
6.00 to 7.00 | COc1cc2c(cc1OC(C)C)-n1c(-c3cc(F)c(F)c(Cl)c3)nc(C(=O)N3CCOCC3(C)C)c1CC2 [Compound 122]
5.30 to 6.00 | COc1cc2c(cc1OC(C)C)-n1c(-c3ccc(F)c(Cl)c3F)nc(C(=O)N3CCOCC3(C)C)c1CC2 [Compound 123]
6.00 to 7.00 | COc1cc2c(cc1OC(C)C)-n1c(-c3cncnc3)nc(C(=O)N3CCOCC3(C)C)c1CC2 [Compound 45]
5.30 to 6.00 | COc1cc2c(cc1OC(C)C)-n1c(-c3cnc(C)s3)nc(C(=O)N(C)C(C)(C)C)c1CC2 [Compound 16]
5.30 to 6.00 | COc1cc2c(cc1OC(C)C)-n1c(-c3ccnn3CC(C)C)nc(C(=O)N3CCOCC3(C)C)c1CC2 [Compound 87]
6.00 to 7.00 | COc1cc2c(cc1OC(C)C)-n1c(C3=CCOCC3)nc(C(=O)N3CCOCC3(C)C)c1CC2 [Compound 79]
5.30 to 6.00 | COc1cc2c(cc1OC(C)C)-n1c(-c3cccc4[nH]ncc34)nc(C(=O)N3CCOCC3(C)C)c1CC2 [Compound 81]
6.00 to 7.00 | [2H]C([2H])([2H])N(C(=O)c1nc(-c2cccs2)n2c1CCc1cc(OC)c(-c3ccn(C)n3)cc1-2)C1(C)COC1 [Compound 130, 7-Methoxy-8-(1-methyl-1H-pyrazol-3-yl)-1-thiophen-2-yl-4,5-dihydro-imidazo[1,5-a]quinoline-3-carboxylic acid methyl-d3-(3-methyl-oxetan-3-yl)-amide]
6.00 to 7.00 | COc1cc2c(cc1OC(C)C)-n1c(C3CCCC3)nc(C(=O)N3CCOCC3(C)C)c1CC2 [Compound 83, (1-Cyclopentyl-8-isopropoxy-7-methoxy-4,5-dihydro-imidazo[1,5-a]quinolin-3-yl)-(3,3-dimethyl-morpholin-4-yl)-methanone]
< 5.30 | COc1cc2c(cc1CC(C)C)-n1c(-c3cc[nH]n3)nc(C(=O)N(C)C(C)(C)C)c1CC2 [Compound 12, 8-Isobutyl-7-methoxy-1-(1H-pyrazol-3-yl)-4,5-dihydro-imidazo[1,5-a]quinoline-3-carboxylic acid tert-butyl-methyl-amide]
5.30 to 6.00 | COc1cc2c(cc1OC(C)C)-n1c(-c3ccnn3C)nc(C(=O)N3CCOCC3(C)C)c1CC2 [Compound 40]
5.30 to 6.00 | COc1cc2c(cc1OC(C)C)-n1c(-c3cc(F)ccc3OC)nc(C(=O)N3CCOCC3(C)C)c1CC2 [Compound 104]
5.30 to 6.00 | COc1cc2c(cc1CC(C)C)-n1c(-c3cn[nH]c3)nc(C(=O)N(C)C(C)(C)C)c1CC2 [Compound 23, 8-Isobutyl-7-methoxy-1-(1H-pyrazol-4-yl)-4,5-dihydro-imidazo[1,5-a]quinoline-3-carboxylic acid tert-butyl-methyl-amide]
6.00 to 7.00 | COc1cc2c(cc1OC(C)C)-n1c(-c3ccsc3)nc(C(=O)N(C)C(C)(C)C)c1CC2 [Compound 5]
> 7.00 | COc1cc2c(cc1CC(C)C)-n1c(-c3cccs3)nc(C(=O)N(C)C(C)(C)C)c1CC2 [Compound 17, 8-Isobutyl-7-methoxy-1-thiophen-2-yl-4,5-dihydro-imidazo[1,5-a]quinoline-3-carboxylic acid tert-butyl-methyl-amide]
